Laboratory results taken from patent US10954225B2, “Selective NR2B antagonists” (Bristol-Myers Squibb Company, priority 2015, dated 2021).

Key:
[1] = biological target: NR2B-subtype NMDA receptors (Rattus norvegicus (Rat), UniProt P35439+Q00960); assay: Radioligand binding assay (3H Ro 25-6981 competition, rat forebrain membranes); details: 3H Ro 25-6981 (4 nM)
Protocol: Radioligand Binding Assay.
Binding experiments to determine binding to NR2B-subtype NMDA receptors were performed on forebrains of 8-10 weeks old male Sprague Dawley rats (Harlan, Netherlands) using ^3H Ro 25-6981 (Mutel V; Buchy D; Klingelschmidt A; Messer J; Bleuel Z; Kemp J A; Richards J G. Journal of Neurochemistry, 1998, 70(5):2147-2155. Rats were decapitated without anesthesia using a Guillotine (approved by animal ethics committee) and the harvested brains were snap-frozen and stored at −80° C. for 3-6 months for membrane preparation.
For membrane preparation, rat forebrains were thawed on ice for 20 minutes in homogenization buffer composed of 50 mM KH2PO4 (pH adjusted to 7.4 with KOH), 1 mM EDTA, 0.005% Triton X 100 and protease inhibitor cocktail (Sigma Aldrich). Thawed brains were homogenized using a Dounce homogenizer and centrifuged at 48000×g for 20 min. The pellet was resuspended in cold buffer and homogenized again using a Dounce homogenizer. Subsequently, the homogenate was aliquoted, snap-frozen and stored at −80° C. for not more than 3-4 months.
To perform the competition binding assay, thawed membrane homogenate was added to each well of a 96-well plate (20 μg/well). […] The filter plates were dried at 50° C. for 20 mins, incubated with microscint 20 for 10 minutes and finally, the counts were read on TopCount (Perkin Elmer).

[2] = biological target: brain-resident NR2B-subtype receptors (Mus musculus (Mouse), UniProt P35438+Q01097); assay: Ex vivo occupancy assay; assay type: in vivo; details: animals after dosing; no dose stated
Protocol: 7-9 weeks old male CD-1 mice were dosed intravenously in a vehicle consisting of 10% dimethylacetamide, 40% PEG-400, 30% hydroxypropyl betacyclodextrin, and 30% water with experimental compounds and the forebrains were harvested 15 minutes post-dosing by decapitation. The brain samples were immediately snap-frozen and stored at −80° C. On the following day, the dosed brain samples were thawed on ice for 15-20 minutes followed by homogenization using Polytron for 10 seconds in cold homogenization buffer composed of 50 mM KH2PO4 (pH adjusted to 7.4 with KOH), 1 mM EDTA, 0.005% Triton X 100 and protease inhibitor cocktail (Sigma Aldrich). The crude homogenates were further homogenized using a Dounce homogenizer and the homogenized membrane aliquots from all animals were flash-frozen and stored at −80° C. until further use. The whole homogenization process was performed on ice. For determining occupancy, the membrane homogenates were first thawed on ice and then needle-homogenized using a 25 gauge needle. The homogenized membrane (6.4 mg/ml) was added to a 96-well plate followed by addition of ^3H Ro 25-6981 (6 nM). […] The filter plates were dried at 50° C. for 20 mins, incubated with microscint 20 for 10 minutes and read on TopCount (Perkin Elmer). […] Non-specific binding was determined using 10 μM Ro 25-6981 added to the wells containing membrane homogenates from vehicle-dosed animals. […]

mice = assay: Mouse Forced Swim Test (mFST); assay type: in vivo; details: 1 mg/Kg i.v., 15 min before swim session
Protocol: Mouse Forced Swim Test (mFST).
Forced Swim Test (FST) is an animal model used to assess antidepressant compounds in preclinical studies. The FST was performed similar to the method of Porsolt et al. with modifications (Porsolt R D, Bertin A, Jalfre M. Behavioral despair in mice: a primary screening test for antidepressants. Arch Int Pharmacodyn Ther 1977; 229:327-36). In this paradigm, mice are forced to swim in an inescapable cylinder filled with water. Under these conditions, mice will initially try to escape and eventually develop immobility behavior; this behavior is interpreted as a passive stress-coping strategy or depression-like behavior. […] The duration of immobility was evaluated during the total 6 min of the test and expressed as duration (sec) of immobility. […] All testing sessions were recorded with a video camera (Sony Handicam, Model: DCR-HC38E; PAL) and scoring was done using the Forced Swim Scan, Version 2.0 software (Clever Systems Inc., Reston, Va., USA; see Hayashi E, Shimamura M, Kuratani K, Kinoshita M, Hara H. Automated experimental system capturing three behavioral components during murine forced swim test. Life Sci. 2011 Feb. 28; 88(9-10):411-7 and Yuan P, Tragon T, Xia M, Leclair C A, Skoumbourdis A P, Zheng W, Thomas C J, Huang R, Austin C P, Chen G, Guitart X. Phosphodiesterase 4 inhibitors enhance sexual pleasure-seeking activity in rodents. […]

Chain of NR2B-subtype NMDA receptors (Q00960 27-1482, other chains not shown): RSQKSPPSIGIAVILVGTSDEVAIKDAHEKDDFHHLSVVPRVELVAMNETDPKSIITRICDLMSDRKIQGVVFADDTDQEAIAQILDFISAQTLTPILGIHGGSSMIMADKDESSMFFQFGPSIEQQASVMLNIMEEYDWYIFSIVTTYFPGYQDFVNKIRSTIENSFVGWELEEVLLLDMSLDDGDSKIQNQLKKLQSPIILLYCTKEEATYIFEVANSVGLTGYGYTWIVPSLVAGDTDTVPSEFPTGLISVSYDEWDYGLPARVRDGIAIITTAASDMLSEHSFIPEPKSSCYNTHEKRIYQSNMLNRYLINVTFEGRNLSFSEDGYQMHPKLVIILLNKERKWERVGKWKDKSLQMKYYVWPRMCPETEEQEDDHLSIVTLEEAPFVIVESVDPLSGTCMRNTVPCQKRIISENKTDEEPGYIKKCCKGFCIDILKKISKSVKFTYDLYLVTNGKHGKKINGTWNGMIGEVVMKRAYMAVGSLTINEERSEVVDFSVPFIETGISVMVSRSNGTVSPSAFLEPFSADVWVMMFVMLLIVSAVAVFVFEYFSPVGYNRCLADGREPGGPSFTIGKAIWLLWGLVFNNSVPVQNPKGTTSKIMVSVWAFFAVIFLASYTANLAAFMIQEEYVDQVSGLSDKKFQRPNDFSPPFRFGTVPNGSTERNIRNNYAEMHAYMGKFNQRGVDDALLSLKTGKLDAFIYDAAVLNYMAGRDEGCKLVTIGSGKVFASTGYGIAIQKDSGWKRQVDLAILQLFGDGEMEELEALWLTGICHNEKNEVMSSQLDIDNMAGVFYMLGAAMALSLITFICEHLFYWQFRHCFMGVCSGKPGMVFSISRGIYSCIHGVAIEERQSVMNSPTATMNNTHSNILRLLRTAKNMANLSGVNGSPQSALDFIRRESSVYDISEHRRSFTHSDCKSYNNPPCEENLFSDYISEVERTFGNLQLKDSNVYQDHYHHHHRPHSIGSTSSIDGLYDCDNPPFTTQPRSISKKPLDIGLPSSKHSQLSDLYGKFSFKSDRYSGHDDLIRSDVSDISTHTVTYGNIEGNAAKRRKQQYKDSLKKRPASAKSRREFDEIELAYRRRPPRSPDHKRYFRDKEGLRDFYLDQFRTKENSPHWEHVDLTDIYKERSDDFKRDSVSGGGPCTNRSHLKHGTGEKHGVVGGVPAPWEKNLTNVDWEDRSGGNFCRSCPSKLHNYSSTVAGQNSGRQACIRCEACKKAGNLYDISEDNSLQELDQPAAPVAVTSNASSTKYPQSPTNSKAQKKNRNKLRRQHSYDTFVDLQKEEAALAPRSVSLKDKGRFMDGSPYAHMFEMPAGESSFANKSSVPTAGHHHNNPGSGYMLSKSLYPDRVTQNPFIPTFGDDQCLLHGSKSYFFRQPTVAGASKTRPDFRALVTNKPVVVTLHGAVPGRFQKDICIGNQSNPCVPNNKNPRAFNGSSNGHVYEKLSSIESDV
Chain of brain-resident NR2B-subtype receptors (Q01097 27-1482, other chains not shown): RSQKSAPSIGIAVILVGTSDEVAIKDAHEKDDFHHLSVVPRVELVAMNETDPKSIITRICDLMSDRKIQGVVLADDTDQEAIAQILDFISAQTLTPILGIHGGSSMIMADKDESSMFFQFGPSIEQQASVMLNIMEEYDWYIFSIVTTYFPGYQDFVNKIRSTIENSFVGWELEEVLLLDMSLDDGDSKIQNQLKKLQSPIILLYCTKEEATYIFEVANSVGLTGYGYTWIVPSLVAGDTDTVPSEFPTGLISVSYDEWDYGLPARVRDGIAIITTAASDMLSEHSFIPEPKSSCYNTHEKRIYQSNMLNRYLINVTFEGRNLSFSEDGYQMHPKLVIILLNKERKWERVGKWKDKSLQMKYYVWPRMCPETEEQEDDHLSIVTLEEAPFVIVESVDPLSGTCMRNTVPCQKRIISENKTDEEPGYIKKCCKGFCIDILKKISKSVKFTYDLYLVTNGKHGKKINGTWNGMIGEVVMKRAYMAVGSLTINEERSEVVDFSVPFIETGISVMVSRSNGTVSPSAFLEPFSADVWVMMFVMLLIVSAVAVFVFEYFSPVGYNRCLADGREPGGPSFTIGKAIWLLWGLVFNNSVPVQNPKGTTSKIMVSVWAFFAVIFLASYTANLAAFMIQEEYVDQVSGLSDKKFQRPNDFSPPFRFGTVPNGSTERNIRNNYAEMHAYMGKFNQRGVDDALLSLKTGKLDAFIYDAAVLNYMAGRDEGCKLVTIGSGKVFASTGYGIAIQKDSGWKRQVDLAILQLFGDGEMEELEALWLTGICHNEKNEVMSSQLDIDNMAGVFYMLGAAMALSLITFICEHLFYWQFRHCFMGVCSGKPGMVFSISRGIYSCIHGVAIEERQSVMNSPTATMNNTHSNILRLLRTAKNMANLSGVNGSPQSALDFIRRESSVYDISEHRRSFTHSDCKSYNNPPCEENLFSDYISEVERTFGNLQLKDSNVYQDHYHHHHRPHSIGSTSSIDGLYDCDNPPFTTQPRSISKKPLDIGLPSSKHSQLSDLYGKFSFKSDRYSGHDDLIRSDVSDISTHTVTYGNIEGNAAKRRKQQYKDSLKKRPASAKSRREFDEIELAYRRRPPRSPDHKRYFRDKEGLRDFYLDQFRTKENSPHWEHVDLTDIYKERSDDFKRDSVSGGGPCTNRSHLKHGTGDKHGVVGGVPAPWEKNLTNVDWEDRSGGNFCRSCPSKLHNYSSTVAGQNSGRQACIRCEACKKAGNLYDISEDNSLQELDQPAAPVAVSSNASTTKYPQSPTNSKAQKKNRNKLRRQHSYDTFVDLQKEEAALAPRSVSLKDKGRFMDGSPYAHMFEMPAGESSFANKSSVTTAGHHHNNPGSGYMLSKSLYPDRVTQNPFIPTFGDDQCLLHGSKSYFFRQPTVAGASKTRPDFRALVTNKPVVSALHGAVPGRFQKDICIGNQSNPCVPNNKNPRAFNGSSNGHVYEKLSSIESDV

Row | Ki [1] [µM] | Structure (SMILES) | further results
1 | 0.0151 | O=C1C(N2CCC(c3ccc(O)cn3)CC2)CON1Cc1ccc(F)cc1 (racemic) [Example 3, 2-(4-fluorobenzyl)-4-(4-(5-hydroxypyridin-2-yl)piperidin-1-yl)isoxazolidin-3-one] | 
2 | 0.00549 | Cc1ccc(CN2OCCC(N3CCC(c4ccc(O)cc4)CC3)C2=O)cc1 (racemic) [Example 4, 4-(4-(4-hydroxyphenyl)piperidin-1-yl)-2-(4-methylbenzyl)-1,2-oxazinan-3-one] | 
3 |  | Cc1ccc(CN2OCC(N3CCC(c4ccc(O)cc4)CC3)C2=O)cc1 (single isomer, unassigned) [2,P-2, 4-(4-(4-hydroxyphenyl)piperidin-1-yl)-2-(4-methylbenzyl)isoxazolidin-3-one] | occupancy of brain-resident NR2B-subtype receptors (in words) [2]: occupies brain-resident NR2B-subtype receptors
4 |  | Cc1ccc(CN2OCC(N3CCN(c4ccc(O)cn4)CC3)C2=O)cc1 (single isomer, unassigned) [10,P-1, 4-(4-(5-hydroxypyridin-2-yl)piperazin-1-yl)-2-(4-methylbenzyl)isoxazolidin-3-one] | immobility time (mice): statistically significant decrease in immobility time
